The target of one assay is T1, PI3Kα (Homo sapiens, UniProt P42336).
T1 construct: purchased Invitrogen
T1 sequence (P42336 whole entry): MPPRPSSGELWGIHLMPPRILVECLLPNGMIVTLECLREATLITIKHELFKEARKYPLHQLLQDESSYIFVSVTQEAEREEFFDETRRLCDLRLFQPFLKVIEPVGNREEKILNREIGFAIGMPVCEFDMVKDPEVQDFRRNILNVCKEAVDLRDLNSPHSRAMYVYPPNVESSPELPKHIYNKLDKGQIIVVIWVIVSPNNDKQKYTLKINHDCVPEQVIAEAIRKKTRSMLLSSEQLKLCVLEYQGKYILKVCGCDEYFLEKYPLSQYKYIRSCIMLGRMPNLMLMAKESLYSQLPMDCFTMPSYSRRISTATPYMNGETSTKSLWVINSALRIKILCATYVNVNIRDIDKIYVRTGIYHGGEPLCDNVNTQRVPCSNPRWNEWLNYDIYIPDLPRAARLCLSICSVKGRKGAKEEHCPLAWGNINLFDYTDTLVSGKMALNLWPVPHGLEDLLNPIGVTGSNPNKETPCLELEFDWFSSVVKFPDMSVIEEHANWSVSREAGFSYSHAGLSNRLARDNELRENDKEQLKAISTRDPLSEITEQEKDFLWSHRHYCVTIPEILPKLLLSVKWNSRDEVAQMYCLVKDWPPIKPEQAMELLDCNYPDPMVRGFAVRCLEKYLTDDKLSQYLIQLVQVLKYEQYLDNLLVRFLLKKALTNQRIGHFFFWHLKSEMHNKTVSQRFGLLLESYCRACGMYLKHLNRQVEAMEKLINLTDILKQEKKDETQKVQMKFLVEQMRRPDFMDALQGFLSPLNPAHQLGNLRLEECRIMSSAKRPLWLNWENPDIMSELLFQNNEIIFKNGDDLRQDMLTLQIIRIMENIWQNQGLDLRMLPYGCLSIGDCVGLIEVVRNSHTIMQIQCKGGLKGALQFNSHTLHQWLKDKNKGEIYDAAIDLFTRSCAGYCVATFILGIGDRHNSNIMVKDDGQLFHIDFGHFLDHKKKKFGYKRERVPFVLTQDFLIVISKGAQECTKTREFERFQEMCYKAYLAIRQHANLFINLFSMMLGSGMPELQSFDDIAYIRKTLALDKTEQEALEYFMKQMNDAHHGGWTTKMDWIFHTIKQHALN
T1 sequence (P27986 whole entry partner): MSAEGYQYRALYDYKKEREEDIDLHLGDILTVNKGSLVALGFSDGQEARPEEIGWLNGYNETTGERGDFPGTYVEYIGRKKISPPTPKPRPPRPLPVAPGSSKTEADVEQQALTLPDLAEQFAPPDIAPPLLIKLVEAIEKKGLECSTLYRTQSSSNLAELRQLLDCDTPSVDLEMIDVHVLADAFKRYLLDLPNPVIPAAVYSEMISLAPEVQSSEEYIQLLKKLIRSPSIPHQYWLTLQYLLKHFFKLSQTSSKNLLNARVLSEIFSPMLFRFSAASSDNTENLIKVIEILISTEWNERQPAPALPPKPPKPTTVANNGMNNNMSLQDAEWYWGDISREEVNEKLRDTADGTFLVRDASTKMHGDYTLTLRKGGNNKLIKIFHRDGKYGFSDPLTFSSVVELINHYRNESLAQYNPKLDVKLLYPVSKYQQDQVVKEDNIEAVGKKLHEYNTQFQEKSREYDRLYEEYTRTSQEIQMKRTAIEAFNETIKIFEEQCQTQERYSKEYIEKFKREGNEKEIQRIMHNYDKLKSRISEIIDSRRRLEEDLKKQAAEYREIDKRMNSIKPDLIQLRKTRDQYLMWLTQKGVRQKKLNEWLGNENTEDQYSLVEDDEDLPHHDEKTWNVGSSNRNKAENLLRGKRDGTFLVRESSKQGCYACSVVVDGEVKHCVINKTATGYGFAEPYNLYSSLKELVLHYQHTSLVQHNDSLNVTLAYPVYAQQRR
Description: In vitro PI3Kα enzymatic assay (ADP-Glo / Kinase-Glo, ATP 25 μM). It counts as biochemical. The conditions noted are these: PI3Kα, compound 10 μM, ATP 25 μM; mean ± SD of three determinations. The procedure:
To screen the inhibitory activity of the target compounds against PI3Kα, the Kinase-Glo™ assay with ATP at 25 μM was utilised with PIK-75 as positive control. We chose to explore the SARs at three positions on the Imidazo[1,2-a]pyridine core. To start with, a set of 8-position modifications were prepared while keeping the morpholinyl amide substituent on 2-position fixed, since it allowed quick structure − activity profiling via coupling reactions of bromide with aryl borates or boronic acids. […] We then turned our attention back to the phenyl substituents.
Briefly, the compound, PI3K enzyme (PI3Kα from Invitrogen), the PIP2 (Life Technologies) substrate, and ATP (25 μM, Sigma) were diluted in kinase buffer to the indicated concentrations. The assay plate was covered and incubated at room temperature for 1 h. Then, the Kinase-Glo reagent (Promega) was added to the PI3Kα plate to stop the reaction, mixed briefly with centrifuge, shaken slowly on the shaker and then equilibrate for 120 min. Finally, add Kinase detection reagent to each well, shake 1 min, equilibrate for 30 min before reading on a plate reader for luminescence. The data were collected on Envision and presented in Excel. IC50 values were calculated from the inhibition curves.
Background: ADP-Glo turns the ADP formed in a reaction into a luminescent signal.
With “(6-Methyl-8–(3-(morpholinosulfonyl)phenyl)Imidazo[1,2-a]pyridin-2-yl)(pyrrolidin-1-yl)methanone [Compound 27]”, the % Inhibition (in general, the percentage by which the read-out fell short of the control) at 10 μM turned out to be 60.9 ± 6.0%. For “N,N-Diethyl-3–(6-methyl-2-(morpholine-4-carbonyl)Imidazo[1,2-a]pyridin-8-yl)benzenesulfonamide [Compound 19]”, the “% Inhibition at 10 μM” value was 58.5 ± 1.6%. As to “1-Cyclohexyl-3–(3-(6-methyl-2–(4-methylpiperidine-1-carbonyl)Imidazo[1,2-a]pyridin-8-yl)phenyl)urea [Compound 33]”, the “% Inhibition at 10 μM” value came out at 44.5 ± 1.2%.

The assay is the same for the next values; noted with them: PI3Kα, compound 10 μM, ATP 25 μM; mean ± SD of three determinations; read-out: % Inhibition at 10 μM.
As to `COc1ncc(-c2cc(C)cn3cc(C(=O)NCCN4CCOCC4)nc23)cc1NS(=O)(=O)c1ccc(F)cc1F` [Compound 38, 8–(5-((2,4-Difluorophenyl)sulfonamido)-6-methoxypyridin-3-yl)-6-methyl-N-(2-morpholinoethyl)Imidazo[1,2-a]pyridine-2-carboxamide], the inhibition – broadly, the drop in the measured response relative to a control, in per cent – at 10 µM is 81.6 ± 2.8%. `COc1ncc(-c2cccn3cc(C(=O)N4CCC(C)CC4)nc23)cc1NS(=O)(=O)c1ccc(F)cc1` [Compound 46, 4-Fluoro-N-(2-methoxy-5–(2-(4-methylpiperidine-1-carbonyl)Imidazo[1,2-a]pyridin-8-yl)pyridin-3-yl)benzenesulfonamide]: the inhibition at 10 µM came out at 40.2 ± 3%. On the same count and under the same terms, under `COc1ncc(-c2cc(C)cn3cc(C(=O)N4CCOCC4)nc23)cc1NS(=O)(=O)c1ccc(F)cc1` [Compound 42, 4-Fluoro-N-(2-methoxy-5–(6-methyl-2-(morpholine-4-carbonyl)Imidazo[1,2-a]pyridin-8-yl)pyridin-3-yl)benzenesulfonamide] stands 69.2 ± 6.4%. For `COc1ccc(-c2cc(C)cn3cc(C(=O)N4CCCC4)nc23)cn1` [Compound 25, (8–(6-Methoxypyridin-3-yl)-6-methylImidazo[1,2-a]pyridin-2-yl)(pyrrolidin-1-yl)methanone], the inhibition at 10 µM turned out to be 44.3 ± 1.5%. On to `COc1ncc(-c2cc(C)cn3cc(C(=O)NCCCN4CCOCC4)nc23)cc1NS(=O)(=O)c1ccc(F)cc1F` [Compound 39, 8–(5-((2,4-Difluorophenyl)sulfonamido)-6-methoxypyridin-3-yl)-6-methyl-N-(3-morpholinopropyl)Imidazo[1,2-a]pyridine-2-carboxamide], for which the inhibition at 10 µM is 70.2 ± 3.6%. As to `COc1ncc(-c2cc(C)cn3cc(C(=O)N4CCCC4)nc23)cc1NS(=O)(=O)c1ccccc1` [Compound 34, N-(2-methoxy-5–(6-methyl-2-(pyrrolidine-1-carbonyl)Imidazo[1,2-a]pyridin-8-yl)pyridin-3-yl)benzenesulfonamide], the inhibition at 10 µM worked out at 49.8 ± 1.6%. Turning to `Cc1cc(-c2ccncc2)c2nc(C(=O)N3CCC(C)CC3)cn2c1` [Compound 30, (6-Methyl-8-(pyridin-4-yl)Imidazo[1,2-a]pyridin-2-yl)(4-methylpiperidin-1-yl)methanone], the inhibition at 10 µM amounted to 9.3 ± 1.7%. On to `Cc1cc(-c2cccnc2)c2nc(C(=O)N3CCOCC3)cn2c1` [Compound 20, (6-Methyl-8-(pyridin-3-yl)Imidazo[1,2-a]pyridin-2-yl)(morpholino)methanone], for which the inhibition at 10 µM stood at 30.2 ± 2.1%. The same measure, in the same setting: with `Cc1cc(-c2cccc(F)c2)c2nc(C(=O)N3CCOCC3)cn2c1` [Compound 16, (8–(3-Fluorophenyl)-6-methylImidazo[1,2-a]pyridin-2-yl)(morpholino)methanone] the figure was 38.2 ± 3.6%. Consider `COc1ncc(-c2cc(C)cn3cc(C(=O)NCCCN4CCOCC4)nc23)cc1NS(=O)(=O)c1ccc(F)cc1` [Compound 41, 8–(5-((4-Fluorophenyl)sulfonamido)-6-methoxypyridin-3-yl)-6-methyl-N-(3-morpholinopropyl)Imidazo[1,2-a]pyridine-2-carboxamide], for which the inhibition at 10 µM amounted to 75.7 ± 2.9%.

Consider `Cc1cc(-c2ccc(F)cc2)c2nc(C(=O)N3CCCC3)cn2c1` [Compound 22, (8–(4-Fluorophenyl)-6-methylImidazo[1,2-a]pyridin-2-yl)(pyrrolidin-1-yl)methanone], for which the inhibition at 10 µM is 33.3 ± 4.2%. `COc1ncc(-c2cc(Cl)cn3cc(C(=O)NCCCN4CCOCC4)nc23)cc1NS(=O)(=O)c1ccc(F)cc1F` [Compound 45, 6-Chloro-8–(5-((2,4-difluorophenyl)sulfonamido)-6-methoxypyridin-3-yl)-N-(3-morpholinopropyl)Imidazo[1,2-a]pyridine-2-carboxamide]: the inhibition at 10 µM turned out to be 59.8 ± 3.5%. The same measure, in the same setting: under `Cc1cc(-c2cccnc2)c2nc(C(=O)N3CCCC3)cn2c1` [Compound 24, (6-Methyl-8-(pyridin-3-yl)Imidazo[1,2-a]pyridin-2-yl)(pyrrolidin-1-yl)methanone] stands 29.6 ± 2.1%; under `COc1ncc(-c2cc(C)cn3cc(C(=O)N4CCN(C)CC4)nc23)cc1NS(=O)(=O)c1ccc(F)cc1` [Compound 44, 4-Fluoro-N-(2-methoxy-5–(6-methyl-2–(4-methylpiperazine-1-carbonyl)Imidazo[1,2-a]pyridin-8-yl)pyridin-3-yl)benzenesulfonamide], 53.4 ± 5.1%. Same read-out and setting: with `COc1ncc(-c2cc(C)cn3cc(C(=O)N4CCOCC4)nc23)cc1NS(=O)(=O)c1ccc(F)cc1F` [Compound 37, 2,4-Difluoro-N-(2-methoxy-5–(6-methyl-2-(morpholine-4-carbonyl)Imidazo[1,2-a]pyridin-8-yl)pyridin-3-yl)benzenesulfonamide] the figure was 67.5 ± 0.3%. On the same count and under the same terms, under `Cc1cc(-c2ccccc2F)c2nc(C(=O)N3CCOCC3)cn2c1` [Compound 17, (8–(2-Fluorophenyl)-6-methylImidazo[1,2-a]pyridin-2-yl)(morpholino)methanone] stands 14.1 ± 2.7%. In the case of `Cc1cc(-c2cccnc2)c2nc(C(=O)N3CCC(C)CC3)cn2c1` [Compound 31, (6-Methyl-8-(pyridin-3-yl)Imidazo[1,2-a]pyridin-2-yl)(4-methylpiperidin-1-yl)methanone], the inhibition at 10 µM came to 28.5 ± 1.6%.

As for `Cc1cc(-c2cccc(F)c2)c2nc(C(=O)N3CCCC3)cn2c1` [Compound 23, (8–(3-Fluorophenyl)-6-methylImidazo[1,2-a]pyridin-2-yl)(pyrrolidin-1-yl)methanone], the inhibition at 10 µM came to 43.9 ± 1.8%. For `COc1ccc(-c2cc(C)cn3cc(C(=O)N4CCOCC4)nc23)cn1` [Compound 21, (8–(6-Methoxypyridin-3-yl)-6-methylImidazo[1,2-a]pyridin-2-yl)(morpholino)methanone], the inhibition at 10 µM turned out to be 39.9 ± 3%. On to `CCN(CC)S(=O)(=O)c1cccc(-c2cc(C)cn3cc(C(=O)N4CCCC4)nc23)c1` [Compound 28, N,N-Diethyl-3–(6-methyl-2-(pyrrolidine-1-carbonyl)Imidazo[1,2-a]pyridin-8-yl)benzenesulfonamide], for which the inhibition at 10 µM came out at 66.1 ± 4.4%. On to `Cc1cc(-c2cccc(F)c2)c2nc(C(=O)N3CCC(C)CC3)cn2c1` [Compound 29, (8–(3-Fluorophenyl)-6-methylImidazo[1,2-a]pyridin-2-yl)(4-methylpiperidin-1-yl)methanone], for which the inhibition at 10 µM came to 30.4 ± 3.1%. Turning to `Cc1cc(-c2ccc(NC(=O)c3cccc(F)c3)cc2)c2nc(C(=O)N3CCOCC3)cn2c1` [Compound 18, 3-Fluoro-N-(4–(6-methyl-2-(morpholine-4-carbonyl)Imidazo[1,2-a]pyridin-8-yl)phenyl)benzamide], the inhibition at 10 µM is 47.6 ± 3.9%.

The same assay, now with this note: read-out: % Inhibition at 10 μM, PI3Kα, compound 10 μM, ATP 25 μM; mean ± SD of three determinations.
Take `Cc1ccc([N+](=O)[O-])cc1S(=O)(=O)N(C)/N=C/c1cnc2ccc(Br)cn12` [PIK-75, reference compound]: the inhibition at 10 µM amounted to 98.2 ± 1.6%.

For the origin of these results see article PMC9858543, “Design, synthesis and evaluation of 2, 6, 8-substituted Imidazopyridine derivatives as potent PI3Kα inhibitors” (Journal of Enzyme Inhibition and Medicinal Chemistry, 2023).
